# In EP4424307A1, “PROTECTIVE AGENT FOR USE IN PERITONEAL DIALYSIS” (Zytoprotec GmbH, priority 2023, dated 2024):
# Peptide text beside a SMILES is read from it.
# Experiments:
# [1] = system: PD induced hepatic inflammatory response; assay: Murine chronic PD exposure model, liver histology (NAS, Oil Red O, Sirius Red); type: in vivo; details: uremic mice with PD, PDF supplemented with Alanyl-Glutamine 8 mM
# Text: (§1) The inventors conducted a murine PD exposure experiment resembling chronic PD in healthy and uremic mice: The experiment consisted of n=34 animals in six distinct groups.
# (§2) The animals were split in the following groups: • 1) Healthy control animals ("control") • 2) Healthy animals receiving PD treatment (via an indwelling catheter) ("PD") • 3) Healthy animals receiving PD treatment (via an indwelling catheter) supplemented with Alanyl-Glutamine ("PD+AG") • 4) Uremic animals ("uremic") • 5) Uremic animals receiving PD treatment (via an indwelling catheter) ("uremic PD") • 6) Uremic animals receiving PD treatment (via an indwelling catheter) supplemented with Alanyl-Glutamine ("uremic PD+AG")
# (§3) All animals of the uremic groups (Groups 4, 5, and 6) were subjected to left-sided 2/3 nephrectomy at day 0 of the study, and to complete right-sided nephrectomy at day 7 of the study, thereby inducing chronic kidney disease.
# (§4) All animals receiving PD treatment (Groups 2, 3, 5, and 6) had their indwelling catheter implanted at day 7 of the study.
# Animals in groups 2,3, 5, and 6 received daily PDF (Dianeal PD4 3.86% [Baxter, Deerfield, IL, USA]) injections via their indwelling catheter starting from day 14 over the course of six weeks, thereby inducing chronic PDF exposure.
# For animals of groups 3 and 6 the daily PDF injections were supplemented with Alanyl-Glutamine (8 mM) over the course of six weeks.
# At sacrifice (day 56 of the study), animal livers were subjected to histologic analysis.
# NAFLD activity score (NAS) assessment was conducted as previously described (47) on hematoxylin & eosin (H&E) stained hepatic tissue on one facial field image per mouse.
# Steatosis hepatis was assessed by semi-quantitative measurement of Oil Red O stained hepatic tissue with one facial field image per mouse.
# Fibrosis hepatis was assessed by semi-quantitative measurement of Sirius Red stained hepatic tissue with one facial field image per mouse.
# [2] = system: acute-phase-response- and inflammation-associated proteins within the liver; assay: Murine chronic PD exposure model, mass spectrometry proteomics analysis of liver; type: in vivo, mice; details: liver of uremic animals receiving PD; of 57 proteins dysregulated by PD; p<0.05
# Text: as §1, §2, §3, §4
# Animals in groups 2,3, 5, and 6 received daily PDF (Dianeal PD4 3.86% [Baxter, Deerfield, IL, USA]) injections via their indwelling catheter starting from day 14 over the course of six weeks, thereby inducing chronic PDF exposure. […]
# [3] = system: clinical markers of liver injury; assay: Secondary analysis of phase II crossover trial of Alanyl-Glutamine supplementation to PDF, liver tests; type: in vivo, human; details: patients on chronic PD, n=41, crossover
# Text: To further investigate the effect of Alanyl-Glutamine supplementation to PDF in human PD-induced hepatic (dys)function, the inventors conducted a secondary analysis of a prospective, multicenter, double-blinded, controlled, randomized, dual-period, 2-treatment, crossover, phase II, proof-of-concept study including eight Austrian centers for Alanyl-Glutamine supplementation to the PDF in patients on chronic PD.
# This study cohort and its baseline characteristics have already been previously described by Vychytil et al (8).
# [4] = system: systemic inflammation; details: addition to PDF in PD patients; tendency for hs-CRP and IL-6, statistical significance with IL-8; cited from earlier work
# [5] = system: hepatic reperfusion-injury; details: rat model; cited from earlier work
# [6] = system: LPS-induced acute liver injury; details: mice; cited from earlier work
# [7] = system: steatohepatitis and fibrosis; details: murine NAFLD model; cited from earlier work
# [8] = H&E liver sections, daily over six weeks, vs uremic PD
# [9] = log10 transformed due to skewness
smiles,measurement,setting,value
"C[C@H](N)C(=O)N[C@@H](CCC(N)=O)C(=O)O [Alanyl-Glutamine, L-alanyl-L-glutamine] (H-Ala-Gln-OH)",areas of hepatocyte ballooning,[1]; [8],decreased
same,numbers of inflammatory immune cell infiltrates,[1]; [8],markedly decreased
same,PD induced fibrosis (% area of Sirius Red stained tissue),[1]; liver sections,trends of improvement
same,PD induced steatosis (% area of Oil Red O stained tissue),[1]; liver sections,trends of improvement
same,NAFLD activity score (NAS),"[1]; daily over six weeks, vs uremic PD, Mann Whitney U test",significantly (p<0.05) decreased
same,number of acute-phase-response- and inflammation-associated proteins with significantly altered abundance,[2],11
same,"GGT, Least squares mean (95% CI)",[3]; [9],1.41 (1.37 to 1.46) U/L
same,"GOT/AST, Least squares mean (95% CI)",[3]; [9],1.23 (1.19 to 1.27) U/L
same,"GPT/ALT, Least squares mean (95% CI)",[3]; [9],1.20 (1.15 to 1.25) U/L
same,"LDH, Least squares mean (95% CI)",[3]; [9],2.30 (2.27 to 2.32) U/L
same,"LDH, Difference Alanyl-Glutamine-placebo, estimate ± SE","[3]; log10 transformed, p value 0.0206",-0.03 ± 0.01 U/L
same,"GPT/ALT, Difference Alanyl-Glutamine-placebo, estimate ± SE","[3]; log10 transformed, p value 0.0466",-0.06 ± 0.03 U/L
same,"GOT/AST, Difference Alanyl-Glutamine-placebo, estimate ± SE","[3]; log10 transformed, p value 0.1877",-0.04 ± 0.03 U/L
same,"GGT, Difference Alanyl-Glutamine-placebo, estimate ± SE","[3]; log10 transformed, p value 0.4901",-0.02 ± 0.02 U/L
same,"systemic inflammation (hs-CRP, IL-6, IL-8)",[4],attenuate systemic inflammation
same,hepatic reperfusion-injury,[5],reduce hepatic reperfusion-injury
same,LPS-induced acute liver injury,[6],protect mice against LPS-induced acute liver injury
same,steatohepatitis and fibrosis,[7],significantly attenuate steatohepatitis and fibrosis
